Laboratory results reported in the supplement of paper PMC9663587.

Experiments:
Assay in all cases: GR value, 72 h; higher = faster growth (1 = untreated, <0 = killing);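 note: breast cancer and non-malignant breast epithelial lines, nine half-log doses, viable cells counted by Hoechst and LIVE/DEAD dye imaging versus time-zero plates and DMSO controls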
Olaparib/AZD2281 = compound: O=C(c1cc(Cc2n[nH]c(=O)c3ccccc23)ccc1F)N1CCN(C(=O)C2CC2)CC1 [Olaparib/AZD2281]
FMF-03-145-1 = compound: CCC(=O)Nc1ccc(C(=O)Nc2ccc(Nc3ncc4c(n3)N(C)c3ccc(C)cc3C(=O)N4C)cc2)cc1 [FMF-03-145-1]
Cabozantinib = compound: COc1cc2nccc(Oc3ccc(NC(=O)C4(C(=O)Nc5ccc(F)cc5)CC4)cc3)c2cc1OC [Cabozantinib]
Alpelisib/BYL719 = compound: Cc1nc(NC(=O)N2CCC[C@H]2C(N)=O)sc1-c1ccnc(C(C)(C)C(F)(F)F)c1 [Alpelisib/BYL719]
INK128/MLN0128 = compound: CC(C)n1nc(-c2ccc3oc(N)nc3c2)c2c(N)ncnc21 [INK128/MLN0128]
ABT-737 = compound: CN(C)CC[C@H](CSc1ccccc1)Nc1ccc(S(=O)(=O)NC(=O)c2ccc(N3CCN(Cc4ccccc4-c4ccc(Cl)cc4)CC3)cc2)cc1[N+](=O)[O-] [ABT-737]
R0-3306 = compound: C1=CC2=C(C=CC(=C2)C=C3C(=O)NC(=NCC4=CC=CS4)S3)N=C1 [R0-3306]
[1] = compound: COc1ccc2c(c1)[C@]1(C[C@H]1c1ccc3c(/C=C/c4ccc(CN5C[C@@H](C)O[C@@H](C)C5)cc4)n[nH]c3c1)C(=O)N2
AZD1775 = compound: C=CCn1c(=O)c2cnc(Nc3ccc(N4CCN(C)CC4)cc3)nc2n1-c1cccc(C(C)(C)O)n1 [AZD1775]
[2] = compound: CC(=O)Nc1cccc(-n2c(=O)n(C3CC3)c(=O)c3c(Nc4ccc(I)cc4F)n(C)c(=O)c(C)c32)c1
TGX221 = compound: CC1=CN2C(=O)C=C(N=C2C(=C1)C(C)NC3=CC=CC=C3)N4CCOCC4 [TGX221]

AU565
GR value (Olaparib/AZD2281; 0.001 µM): 0.901 GR
GR value (Olaparib/AZD2281; 0.003162 µM): 1 GR
GR value (Olaparib/AZD2281; 0.01 µM): 1.02 GR
GR value (Olaparib/AZD2281; 0.03162 µM): 1.04 GR
GR value (Olaparib/AZD2281; 0.1 µM): 1 GR
GR value (Olaparib/AZD2281; 0.3162 µM): 0.907 GR
GR value (Olaparib/AZD2281; 1 µM): 0.942 GR
GR value (Olaparib/AZD2281; 3.162 µM): 0.979 GR
GR value (Olaparib/AZD2281; 10 µM): 0.577 GR
GR value (FMF-03-145-1; 0.0001 µM): 0.967 GR
GR value (FMF-03-145-1; 0.0003162 µM): 0.975 GR
GR value (FMF-03-145-1; 0.001 µM): 0.99 GR
GR value (FMF-03-145-1; 0.003162 µM): 0.971 GR
GR value (FMF-03-145-1; 0.01 µM): -0.215 GR
GR value (FMF-03-145-1; 0.03162 µM): -0.0803 GR
GR value (FMF-03-145-1; 0.1 µM): -0.163 GR
GR value (Cabozantinib; 0.001 µM): 1.03 GR
GR value (Cabozantinib; 0.003162 µM): 1.04 GR
GR value (Cabozantinib; 0.01 µM): 1.03 GR
GR value (Cabozantinib; 0.03162 µM): 1.06 GR
GR value (Cabozantinib; 0.1 µM): 1.06 GR
GR value (Cabozantinib; 0.3162 µM): 1.12 GR
GR value (Cabozantinib; 1 µM): 0.997 GR
GR value (Cabozantinib; 3.162 µM): 1.02 GR
GR value (Cabozantinib; 10 µM): 0.309 GR
GR value (Alpelisib/BYL719; 0.001 µM): 0.962 GR
GR value (Alpelisib/BYL719; 0.003162 µM): 1.06 GR
GR value (Alpelisib/BYL719; 0.01 µM): 0.931 GR
GR value (Alpelisib/BYL719; 0.03162 µM): 0.762 GR
GR value (Alpelisib/BYL719; 0.1 µM): 0.621 GR
GR value (Alpelisib/BYL719; 0.3162 µM): 0.504 GR
GR value (Alpelisib/BYL719; 1 µM): 0.215 GR
GR value (Alpelisib/BYL719; 3.162 µM): -0.0201 GR
GR value (Alpelisib/BYL719; 10 µM): -0.464 GR
GR value (INK128/MLN0128; 0.0003162 µM): 0.889 GR
GR value (INK128/MLN0128; 0.001 µM): 0.931 GR
GR value (INK128/MLN0128; 0.003162 µM): 0.62 GR
GR value (INK128/MLN0128; 0.01 µM): 0.249 GR
GR value (INK128/MLN0128; 0.03162 µM): 0.0411 GR
GR value (INK128/MLN0128; 0.1 µM): -0.0783 GR
GR value (INK128/MLN0128; 0.3162 µM): -0.0838 GR
GR value (INK128/MLN0128; 1 µM): -0.184 GR
GR value (INK128/MLN0128; 3.162 µM): -0.48 GR
GR value (ABT-737; 0.001 µM): 0.926 GR
GR value (ABT-737; 0.003162 µM): 1.05 GR
GR value (ABT-737; 0.01 µM): 1.03 GR
GR value (ABT-737; 0.03162 µM): 1.04 GR
GR value (ABT-737; 0.1 µM): 1.04 GR
GR value (ABT-737; 0.3162 µM): 1.02 GR
GR value (ABT-737; 1 µM): 0.957 GR
GR value (ABT-737; 3.162 µM): 0.86 GR
GR value (ABT-737; 10 µM): 0.279 GR
GR value (R0-3306; 0.001 µM): 0.805 GR
GR value (R0-3306; 0.003162 µM): 0.756 GR
GR value (R0-3306; 0.01 µM): 0.522 GR
GR value (R0-3306; 0.03162 µM): 0.735 GR
GR value (R0-3306; 0.1 µM): 0.692 GR
GR value (R0-3306; 0.3162 µM): 0.711 GR
GR value (R0-3306; 1 µM): 0.548 GR
GR value (R0-3306; 3.162 µM): 0.375 GR
GR value (R0-3306; 10 µM): -0.214 GR
GR value ([1]; 0.0001 µM): 0.968 GR
GR value ([1]; 0.0003162 µM): 0.96 GR
GR value ([1]; 0.001 µM): 0.874 GR
GR value ([1]; 0.003162 µM): 0.602 GR
GR value ([1]; 0.01 µM): -0.128 GR
GR value ([1]; 0.03162 µM): -0.147 GR
GR value ([1]; 0.1 µM): -0.161 GR
GR value ([1]; 0.3162 µM): -0.168 GR
GR value ([1]; 1 µM): -0.109 GR
GR value (AZD1775; 0.001 µM): 0.879 GR
GR value (AZD1775; 0.003162 µM): 0.913 GR
GR value (AZD1775; 0.01 µM): 0.779 GR
GR value (AZD1775; 0.03162 µM): 0.585 GR
GR value (AZD1775; 0.1 µM): 0.612 GR
GR value (AZD1775; 0.3162 µM): 0.521 GR
GR value (AZD1775; 1 µM): 0.288 GR
GR value (AZD1775; 3.162 µM): 0.207 GR
GR value (AZD1775; 10 µM): -0.514 GR
GR value ([2]; 0.0001 µM): 1.05 GR
GR value ([2]; 0.0003162 µM): 0.96 GR
GR value ([2]; 0.001 µM): 1.08 GR
GR value ([2]; 0.003162 µM): 1.05 GR
GR value ([2]; 0.01 µM): 1.02 GR
GR value ([2]; 0.03162 µM): 0.968 GR
GR value ([2]; 0.1 µM): 1.08 GR
GR value ([2]; 0.3162 µM): 1.02 GR
GR value ([2]; 1 µM): 1.01 GR
GR value (TGX221; 0.001 µM): 0.923 GR
GR value (TGX221; 0.003162 µM): 0.912 GR
GR value (TGX221; 0.01 µM): 0.868 GR
GR value (TGX221; 0.03162 µM): 0.964 GR
GR value (TGX221; 0.1 µM): 0.916 GR
GR value (TGX221; 0.3162 µM): 0.889 GR
GR value (TGX221; 1 µM): 0.919 GR
GR value (TGX221; 3.162 µM): 0.852 GR
GR value (TGX221; 10 µM): 0.58 GR
